Test systems include OVCAR-4 ovarian; MOLT-4 leukemia; OVCAR-5 ovarian; SK-MEL-28 melanoma; KM12 colon; MDA-MB-435; SW-620 colon; OVCAR-8 ovarian; NCI-H23 lung; M14 melanoma.
Holding throughout (assay): DTP human tumour cell line panel, 48 h

The TGI is the concentration giving total growth inhibition. High values mean lower sensitivity of the cells, low ones greater sensitivity of the cells.

Molecules are shown by their SMILES.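 Assay format: 96-well plates, 48-hour exposure. The concentration for full growth arrest is given as TGI.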

Turning to `Nc1nc(Cl)c(Cl)c(NCC2(O)CCC2)n1`, the total growth inhibition concentration (TGI) in the test on OVCAR-4 ovarian was 69 µM; with MOLT-4 leukemia, over 100 µM; with OVCAR-5 ovarian, over 100 µM; in the test with SK-MEL-28 melanoma, over 100 µM; with KM12 colon, over 100 µM; in the test on MDA-MB-435 it was over 100 µM. For the same compound, the TGI in the test on SW-620 colon, with OVCAR-8 ovarian and with NCI-H23 lung was over 100 µM in each case.

On to `C=C=CC(NC(=O)c1ccccc1)(C(=O)O)C(F)(F)F` (stereo unspecified), for which the TGI with M14 melanoma, in the test with MOLT-4 leukemia, with OVCAR-5 ovarian, in the test on SK-MEL-28 melanoma, in the test with KM12 colon and with SW-620 colon was over 100 µM throughout. Besides, the TGI with OVCAR-8 ovarian and in the test on NCI-H23 lung was over 100 µM throughout.

Consider `Cn1cc(S(=O)(=O)NC(=O)Nc2ccc(Cl)cc2)c(=O)c2ccc(F)cc21`, for which the TGI in the test with OVCAR-4 ovarian, with MOLT-4 leukemia, in the test on OVCAR-5 ovarian, in the test on SK-MEL-28 melanoma, in the test on KM12 colon and with MDA-MB-435 was over 100 µM throughout. Also, the concentration for total growth inhibition (TGI) with SW-620 colon, in the test on OVCAR-8 ovarian and in the test with NCI-H23 lung was over 100 µM each time.

Turning to `C#CCN(Cc1ccc2nc(-c3ccccc3)c(N)nc2c1)c1cc(OC)c(OC)c(OC)c1`, the TGI is over 100 µM in the test on OVCAR-4 ovarian; 93.7 µM in the test on M14 melanoma; 35.7 µM in the test with MOLT-4 leukemia; over 100 µM in the test on OVCAR-5 ovarian; over 100 µM in the test on SK-MEL-28 melanoma; over 100 µM in the test on SW-620 colon. Also, the TGI with OVCAR-8 ovarian and in the test on NCI-H23 lung was over 100 µM each time.

Consider `O=C(/C=C(\C(=O)c1cccs1)c1cccs1)c1ccc(C(=O)/C=C(\C(=O)c2cccs2)c2cccs2)cc1`, for which the TGI in the test with OVCAR-4 ovarian, in the test on M14 melanoma, in the test on MOLT-4 leukemia, with SK-MEL-28 melanoma, with KM12 colon and in the test on MDA-MB-435 was over 100 µM each time. In addition, the TGI with SW-620 colon and in the test on OVCAR-8 ovarian was over 100 µM throughout.

On to `O=C(NO)NCCCl`, for which the TGI with OVCAR-4 ovarian, with M14 melanoma, in the test on MOLT-4 leukemia, in the test with OVCAR-5 ovarian, in the test on KM12 colon and in the test on MDA-MB-435 was over 100 µM throughout. The TGI in the test on SW-620 colon, in the test with OVCAR-8 ovarian and with NCI-H23 lung was over 100 µM throughout.

As to `COc1cc2c(cc1OC)C(=O)/C(=C/c1cc(C)cc(C)c1)C2`, the TGI with OVCAR-4 ovarian is over 100 µM; in the test on M14 melanoma, over 100 µM; in the test on MOLT-4 leukemia, over 90.3 µM; with OVCAR-5 ovarian, over 86.4 µM; with SK-MEL-28 melanoma, over 100 µM; in the test with KM12 colon it was 13.5 µM. Further, the TGI was over 90.7 µM with SW-620 colon and over 68 µM in the test on NCI-H23 lung.

As for `C[C@H](CCC1SC1(C)C)C1CCC2(C)C3=C(CC[C@]12C)[C@@]1(C)CC[C@H](O)C(C)(C)C1CC3` (stereo partly specified), the TGI with OVCAR-4 ovarian, in the test on M14 melanoma, with MOLT-4 leukemia, with OVCAR-5 ovarian, in the test on SK-MEL-28 melanoma and with KM12 colon was over 100 µM in each case. Further, the TGI in the test with SW-620 colon, in the test with OVCAR-8 ovarian and in the test with NCI-H23 lung was over 100 µM in each case.

In the case of `O=C(O)c1nc2ccc(C(F)(F)F)cc2nc1Nc1ccc(F)cc1`, the TGI with OVCAR-4 ovarian is over 100 µM; in the test with MOLT-4 leukemia, 28.9 µM; in the test on OVCAR-5 ovarian, 64.3 µM; in the test with SK-MEL-28 melanoma, over 100 µM; with KM12 colon it was 63 µM; with MDA-MB-435, 44.7 µM. Further, the TGI in the test on SW-620 colon was 82.2 µM; in the test with OVCAR-8 ovarian it was 83.8 µM; in the test on NCI-H23 lung it was 37.6 µM.

For `CCn1c2ccccc2c2c(-c3ccccc3)cc3c(c21)C(=O)N(c1ccccc1)C3=O`, the TGI in the test on OVCAR-4 ovarian, with M14 melanoma, in the test with MOLT-4 leukemia, in the test on OVCAR-5 ovarian, with SK-MEL-28 melanoma and in the test on KM12 colon was over 100 µM throughout. Further, the concentration for total growth inhibition (TGI) in the test with SW-620 colon, in the test with OVCAR-8 ovarian and in the test on NCI-H23 lung was over 100 µM each time.

Take `Cc1nc2cc(Nc3ccccc3C(=O)O)ccc2s1`: the TGI in the test on OVCAR-4 ovarian, in the test with M14 melanoma, with MOLT-4 leukemia, in the test with OVCAR-5 ovarian, with SK-MEL-28 melanoma and with KM12 colon was over 100 µM throughout. Also, the TGI in the test with SW-620 colon, in the test with OVCAR-8 ovarian and with NCI-H23 lung was over 100 µM in each case.

With `C/C(N=NS(=O)(=O)c1ccc([N+](=O)[O-])cc1)=C1\C=CC=CN1O`, the TGI with OVCAR-4 ovarian, in the test on M14 melanoma, in the test on MOLT-4 leukemia, with OVCAR-5 ovarian, in the test with SK-MEL-28 melanoma and in the test with KM12 colon was over 100 µM in each case. The TGI in the test with SW-620 colon, in the test with OVCAR-8 ovarian and in the test with NCI-H23 lung was over 100 µM in each case.

Take `NC(=O)CC(N=Cc1nc(-c2ccccc2)oc1O)C(=O)O` (stereo unspecified): the TGI with OVCAR-4 ovarian, with M14 melanoma, in the test with OVCAR-5 ovarian, with SK-MEL-28 melanoma, with KM12 colon and in the test with SW-620 colon was over 100 µM throughout. For the same compound, the TGI in the test on OVCAR-8 ovarian and with NCI-H23 lung was over 100 µM in each case.

`O=C(SCc1cccc2ccccc12)c1ccc(Cl)cc1`: the TGI with OVCAR-4 ovarian, in the test on M14 melanoma, in the test on OVCAR-5 ovarian, with SK-MEL-28 melanoma, in the test on KM12 colon and in the test with MDA-MB-435 was over 100 µM each time. Further, the TGI with SW-620 colon, in the test with OVCAR-8 ovarian and with NCI-H23 lung was over 100 µM each time.
